In publication PMC9203742 (Nature Communications, 2022):
Where “and” joins values, the source holds several entries; their conditions need not be identical. Identical values can stand only once.

Assays:
[1] = system: HEK293 cells, control vector; assay: Inositol-1-phosphate (IP1) accumulation assay, HEK293 cells transfected with control vector; format: cell-based; settings: 100 µM Glu; Vec; listed as Glu
[2] = system: HEK293 cells, vector control; assay: Fura-2 Ca2+ imaging in HEK293 cells transfected with control vector (Vec); format: cell-based; settings: single-cell values #1-#20, listed as Glu
[3] = system: mGlu1 construct not given; assay: Fura-2 Ca2+ imaging in HEK293 cells, source data Suppl Fig1, left group (c0-c8); construct not given; format: cell-based, rat; design: unit not given here; settings: single-cell values, cells #15-#20; left group of third block; listed as Glu
From the text: (§1) Supplement 41467_2022_30828_MOESM6_ESM.zip/Ojima et al_source data_Suppl Fig.xlsx, sheet "Suppl Fig1" | column: Glu; NiCl2; CuCl2; ZnCl2; CdCl2; Na2PdCl2; Pd(bpy)

[4] = system: mGlu1 construct not given; assay: Fura-2 Ca2+ imaging in HEK293 cells, source data Suppl Fig1, middle group (c9-c17); construct not given; format: cell-based, rat; design: unit not given here; settings: single-cell values, cells #15-#20; middle group of third block; listed as Glu
From the text: as §1

[5] = system: mGlu1 construct not given; assay: Fura-2 Ca2+ imaging in HEK293 cells, source data Suppl Fig1, right group (c18-c26); construct not given; format: cell-based, rat; design: unit not given here; settings: single-cell values, cells #15-#20; right group of third block; listed as Glu
From the text: as §1

N[C@@H](CCC(=O)O)C(=O)O [glutamate, reference compound]
IP1 accumulation, single experiments [1]: 1.025 and 1.123 and 0.98 | Ca2+ response of individual cells (source data Suppl Fig1), Vec [2]: 0.01056 and 0.06409 and 0.01964 and 0.006185 and 0.01272 and 0.02269 and 0.02795 and 0.001992 and 0.03471 and 0.04057 and 0.0119 and 0.01116 and 0.01651 and 0.008954 and 0.06266 and 0.02138 and 0.004577 and 0.01188 and 0.01429 and 0.0107 | Ca2+ response of individual cells (source data, sheet Suppl Fig1) [3]: 0.1813 and 0.3548 and 0.1848 and 0.1996 and 0.1287 and 0.1577 | Ca2+ response of individual cells (source data, sheet Suppl Fig1) [4]: 0.1431 and 0.7212 and 0.03709 and 0.1609 and 0.01695 and 0.7758 | Ca2+ response of individual cells (source data, sheet Suppl Fig1) [5]: 0.5202 and 0.5869 and 0.3843 and 0.3042 and 0.505 and 0.02158
